Results on four compounds are retold here after patent US20060189512A1, “Compositions containing botanical extracts rich in phlorizin and methods for using such compositions in blood glucose modification and to affect aging” (priority 2005, published 2006).

The target of the test is T1, SIRT1 (histone deacetylase) (Homo sapiens, UniProt Q96EB6).
T1 construct: purchased BIOMOL Research Laboratories, Inc., Plymouth Meeting, Pa
T1 sequence (Q96EB6 1-747): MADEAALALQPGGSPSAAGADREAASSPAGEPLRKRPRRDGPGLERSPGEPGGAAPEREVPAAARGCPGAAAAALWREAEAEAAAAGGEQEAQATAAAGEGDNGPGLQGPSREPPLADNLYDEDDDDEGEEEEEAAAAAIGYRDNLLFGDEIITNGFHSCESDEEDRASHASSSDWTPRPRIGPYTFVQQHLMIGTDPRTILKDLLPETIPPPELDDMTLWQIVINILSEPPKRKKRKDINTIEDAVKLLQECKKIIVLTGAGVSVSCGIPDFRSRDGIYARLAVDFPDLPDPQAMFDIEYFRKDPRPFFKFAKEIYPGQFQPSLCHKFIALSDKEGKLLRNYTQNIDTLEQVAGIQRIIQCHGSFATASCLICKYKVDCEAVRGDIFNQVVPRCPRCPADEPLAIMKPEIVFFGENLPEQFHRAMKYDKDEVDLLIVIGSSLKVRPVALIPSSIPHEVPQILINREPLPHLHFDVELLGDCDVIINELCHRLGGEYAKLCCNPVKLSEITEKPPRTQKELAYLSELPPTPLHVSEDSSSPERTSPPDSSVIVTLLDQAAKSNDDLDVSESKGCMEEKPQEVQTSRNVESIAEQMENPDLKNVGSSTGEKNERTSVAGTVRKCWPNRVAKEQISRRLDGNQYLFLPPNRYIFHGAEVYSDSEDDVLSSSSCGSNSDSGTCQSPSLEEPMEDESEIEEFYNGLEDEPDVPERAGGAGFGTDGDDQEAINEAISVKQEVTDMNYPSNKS
The test can be described thus: Cell-based fluorescence deacetylase assay, SIRT1 Fluorimetric Drug Discovery Kit (BIOMOL). From the text:
A cell-based fluorescence deacetylase assay, SIRT1 Fluorimetric Drug Discovery Kit, obtained from BIOMOL Research Laboratories, Inc., Plymouth Meeting, Pa. was used to measure the effects of various polyphenols in apple extract on histone deacetylase activity.

In turn, `O=c1c(O)c(-c2ccc(O)c(O)c2)oc2cc(O)cc(O)c12` [Quercetin] displayed a Histone deacetylase activity (concentration 500 micromolar) of 4.59 × baseline.

For the setting “concentration 500 micromolar”, `O=C(CCc1ccc(O)cc1)c1c(O)cc(O)cc1O` [Phloretin] registered a Histone deacetylase activity of 1.94 × baseline. `O=C(CCc1ccc(O)cc1)c1c(O)cc(O)cc1O[C@@H]1O[C@H](CO)[C@@H](O)[C@H](O)[C@H]1O` [Phlorizin] had a Histone deacetylase activity (concentration 100 micromolar) of 1.36 × baseline. Catechins: the Histone deacetylase activity (concentration 500 micromolar) was 1.26-1.53 × baseline.
